# Source: ChEMBL document CHEMBL1201862, “PubChem BioAssay data set” (2004)
#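 Following 48 hours of exposure in 96-well plates, responses at five concentrations were used to interpolate endpoints linearly. GI50 = concentration required for 50% inhibition of growth.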 Calls of active or inactive are those of the source. No stated cut-off is given here; in the data, active = GI50 up to about 1.1 µM and inactive = higher.
# How the values were obtained:
# Test in all cases: NCI tumour cell line growth inhibition, 48 h
# [1] = tested on: SW-620
# [2] = tested on: OVCAR-5
# [3] = tested on: 786-0
# [4] = tested on: HOP-92
# [5] = tested on: SK-MEL-2
# [6] = tested on: HL-60
# [7] = tested on: TK-10
# [8] = tested on: SNB-19
# [9] = tested on: MDA-N
# [10] = tested on: SF-539
# [11] = tested on: NCI-H226
# [12] = tested on: LOX IMVI
# [13] = tested on: SNB-75
# [14] = tested on: OVCAR-4
# [15] = tested on: ACHN
# [16] = tested on: BT-549
# [17] = tested on: K562
# [18] = tested on: MOLT-4
# [19] = tested on: DU-145
# [20] = tested on: RPMI-8226
# [21] = tested on: MDA-MB-435
# [22] = tested on: UO-31
# [23] = tested on: NCI-H460
# [24] = tested on: EKVX
# [25] = tested on: HCT-116
# [26] = tested on: CAKI-1
# [27] = tested on: CCRF-CEM
# [28] = tested on: COLO 205
# [29] = tested on: HOP-62
# [30] = tested on: NCI-H23
# [31] = tested on: SR
# [32] = tested on: UACC-257
# [33] = tested on: A549
# [34] = tested on: Malme-3M
# [35] = tested on: NCI-H522
# [36] = tested on: SK-MEL-28
# [37] = tested on: T47D
# [38] = tested on: IGROV-1
# [39] = tested on: OVCAR-8
# [40] = tested on: MCF7
# [41] = tested on: UACC-62
# [42] = tested on: PC-3
# [43] = tested on: HT-29
# [44] = tested on: SF-268
# [45] = tested on: Hs-578T
# [46] = tested on: SK-MEL-5
# [47] = tested on: HCT-15
# [48] = tested on: SN12C
# [49] = tested on: A498
# [50] = tested on: HCC 2998
# [51] = tested on: MDA-MB-231
# [52] = tested on: U-251
# [53] = tested on: KM12
# [54] = tested on: OVCAR-3
# [55] = tested on: NCI/ADR-RES
# [56] = tested on: SK-OV-3
# [57] = tested on: SF-295
# [58] = tested on: RXF 393
# [59] = tested on: M14
smiles,measurement,setting,value
COc1ccc(NC(=S)N/N=C(\C)c2nc3cccnc3[nH]2)cc1,GI50,[1],6.87 µM (inactive)
same,GI50,[2],6.11 µM (inactive)
same,GI50,[3],4.99 µM (inactive)
same,GI50,[4],4.4 µM (inactive)
same,GI50,[5],16.4 µM (inactive)
same,GI50,[6],2.69 µM (inactive)
same,GI50,[7],0.637 µM (active)
same,GI50,[8],5.32 µM (inactive)
same,GI50,[9],11.7 µM (inactive)
same,GI50,[10],2.9 µM (inactive)
same,GI50,[11],3.73 µM (inactive)
same,GI50,[12],3.18 µM (inactive)
same,GI50,[13],12.5 µM (inactive)
same,GI50,[14],4.94 µM (inactive)
same,GI50,[15],4.29 µM (inactive)
same,GI50,[16],4.57 µM (inactive)
same,GI50,[17],3.58 µM (inactive)
same,GI50,[18],3.41 µM (inactive)
same,GI50,[19],6.17 µM (inactive)
same,GI50,[20],4.35 µM (inactive)
same,GI50,[21],6.62 µM (inactive)
same,GI50,[22],1.97 µM (inactive)
same,GI50,[23],2.94 µM (inactive)
same,GI50,[24],2.32 µM (inactive)
same,GI50,[25],3.02 µM (inactive)
same,GI50,[26],3.96 µM (inactive)
same,GI50,[27],2.45 µM (inactive)
same,GI50,[28],4.52 µM (inactive)
same,GI50,[29],7.5 µM (inactive)
same,GI50,[30],10 µM (inactive)
same,GI50,[31],3.86 µM (inactive)
same,GI50,[32],3.52 µM (inactive)
same,GI50,[33],5.53 µM (inactive)
same,GI50,[34],7.59 µM (inactive)
same,GI50,[35],7.03 µM (inactive)
same,GI50,[36],6.46 µM (inactive)
same,GI50,[37],3.26 µM (inactive)
same,GI50,[38],5.55 µM (inactive)
same,GI50,[39],3.19 µM (inactive)
same,GI50,[40],3.41 µM (inactive)
same,GI50,[41],3.93 µM (inactive)
same,GI50,[42],4.48 µM (inactive)
same,GI50,[43],5.37 µM (inactive)
same,GI50,[44],4.04 µM (inactive)
same,GI50,[45],19.6 µM (inactive)
same,GI50,[46],4.33 µM (inactive)
same,GI50,[47],4.36 µM
same,GI50,[48],5.65 µM (inactive)
same,GI50,[49],14.3 µM (inactive)
same,GI50,[50],7.55 µM (inactive)
same,GI50,[51],5.9 µM (inactive)
same,GI50,[52],3.87 µM (inactive)
same,GI50,[53],5.47 µM (inactive)
same,GI50,[54],1.79 µM (inactive)
same,GI50,[55],6.62 µM (inactive)
same,GI50,[56],13.5 µM (inactive)
same,GI50,[57],3.13 µM (inactive)
COc1ccc(NC(=O)CC(=O)N2N=C(N3CCCCC3)CC2c2ccccc2)cc1 (stereo not drawn),GI50,[1],> 100 µM (inactive)
same,GI50,[2],> 100 µM (inactive)
same,GI50,[3],> 100 µM (inactive)
same,GI50,[4],99.5 µM (inactive)
same,GI50,[5],> 100 µM (inactive)
same,GI50,[6],> 100 µM (inactive)
same,GI50,[7],> 100 µM (inactive)
same,GI50,[8],> 100 µM (inactive)
same,GI50,[9],> 100 µM (inactive)
same,GI50,[10],> 100 µM (inactive)
same,GI50,[11],> 100 µM (inactive)
same,GI50,[12],> 100 µM (inactive)
same,GI50,[13],> 100 µM (inactive)
same,GI50,[14],> 100 µM (inactive)
same,GI50,[15],> 100 µM (inactive)
same,GI50,[16],> 100 µM (inactive)
same,GI50,[18],> 100 µM (inactive)
same,GI50,[19],> 100 µM (inactive)
same,GI50,[21],> 100 µM (inactive)
same,GI50,[22],> 100 µM (inactive)
same,GI50,[23],> 100 µM (inactive)
same,GI50,[24],> 100 µM (inactive)
same,GI50,[25],> 100 µM (inactive)
same,GI50,[26],> 100 µM (inactive)
same,GI50,[27],> 100 µM (inactive)
same,GI50,[28],> 100 µM (inactive)
same,GI50,[29],> 100 µM (inactive)
same,GI50,[30],> 100 µM (inactive)
same,GI50,[31],> 100 µM (inactive)
same,GI50,[32],> 100 µM (inactive)
same,GI50,[33],> 100 µM (inactive)
same,GI50,[34],> 100 µM (inactive)
same,GI50,[35],> 100 µM (inactive)
same,GI50,[36],> 100 µM (inactive)
same,GI50,[58],> 100 µM (inactive)
same,GI50,[37],> 100 µM (inactive)
same,GI50,[38],> 100 µM (inactive)
same,GI50,[39],> 100 µM (inactive)
same,GI50,[40],> 100 µM (inactive)
same,GI50,[41],> 100 µM (inactive)
same,GI50,[42],> 100 µM (inactive)
same,GI50,[43],> 100 µM (inactive)
same,GI50,[44],> 100 µM (inactive)
same,GI50,[45],> 100 µM (inactive)
same,GI50,[46],> 100 µM (inactive)
same,GI50,[47],> 100 µM
same,GI50,[48],> 100 µM (inactive)
same,GI50,[49],> 100 µM (inactive)
same,GI50,[50],> 100 µM (inactive)
same,GI50,[51],> 100 µM (inactive)
same,GI50,[52],> 100 µM (inactive)
same,GI50,[53],> 100 µM (inactive)
same,GI50,[54],> 100 µM (inactive)
same,GI50,[55],> 100 µM (inactive)
same,GI50,[57],> 100 µM (inactive)
same,GI50,[59],> 100 µM (inactive)
O=C(OC1CN2CCC1CC2)N(c1ccccc1)c1ccccc1 (stereo not drawn),GI50,[2],> 100 µM (inactive)
same,GI50,[3],> 100 µM (inactive)
same,GI50,[4],34.7 µM (inactive)
same,GI50,[5],> 100 µM (inactive)
same,GI50,[6],24.9 µM (inactive)
same,GI50,[7],56.2 µM (inactive)
same,GI50,[8],> 100 µM (inactive)
same,GI50,[9],> 100 µM (inactive)
same,GI50,[10],68.4 µM (inactive)
same,GI50,[11],> 100 µM (inactive)
same,GI50,[12],38.5 µM (inactive)
same,GI50,[13],46.2 µM (inactive)
same,GI50,[14],> 100 µM (inactive)
same,GI50,[15],> 100 µM (inactive)
same,GI50,[16],> 100 µM (inactive)
same,GI50,[17],24.9 µM (inactive)
same,GI50,[18],43.1 µM (inactive)
same,GI50,[19],> 100 µM (inactive)
same,GI50,[20],> 100 µM (inactive)
same,GI50,[21],> 100 µM (inactive)
same,GI50,[22],86.9 µM (inactive)
same,GI50,[24],> 100 µM (inactive)
same,GI50,[25],47.4 µM (inactive)
same,GI50,[26],> 100 µM (inactive)
same,GI50,[27],54.7 µM (inactive)
same,GI50,[28],43.1 µM (inactive)
same,GI50,[29],80.5 µM (inactive)
same,GI50,[30],> 100 µM (inactive)
same,GI50,[31],4.61 µM (inactive)
same,GI50,[32],62.5 µM (inactive)
same,GI50,[33],> 100 µM (inactive)
same,GI50,[34],> 100 µM (inactive)
same,GI50,[35],> 100 µM (inactive)
same,GI50,[36],80.5 µM (inactive)
same,GI50,[58],50.1 µM (inactive)
same,GI50,[37],> 100 µM (inactive)
same,GI50,[38],> 100 µM (inactive)
same,GI50,[39],> 100 µM (inactive)
same,GI50,[40],74.8 µM (inactive)
same,GI50,[41],65 µM (inactive)
same,GI50,[42],69.2 µM (inactive)
same,GI50,[43],44.9 µM (inactive)
same,GI50,[44],> 100 µM (inactive)
same,GI50,[45],> 100 µM (inactive)
same,GI50,[46],29.4 µM (inactive)
same,GI50,[47],> 100 µM
same,GI50,[48],> 100 µM (inactive)
same,GI50,[49],24.7 µM (inactive)
same,GI50,[51],54 µM (inactive)
same,GI50,[52],> 100 µM (inactive)
same,GI50,[54],> 100 µM (inactive)
same,GI50,[55],> 100 µM (inactive)
same,GI50,[56],> 100 µM (inactive)
same,GI50,[57],51.1 µM (inactive)
same,GI50,[59],22.9 µM (inactive)
